Measurements as given in patent US7101664B2, “Bioactive oligopeptides” (Polymun Scientific Immunbiologische Forschung GmbH, priority 1999, dated 2006).
Like-named read-outs stand apart in the source and are kept apart here. Where a SMILES comes first, the peptide text is derived from it. Where no end group is shown, it is not given here. [ ]: non-standard residue; d: D form. βAla = NCCC(=O)O

Key:
Mouse hybridoma CAU 96 [1] = assay: Batch T-flask culture of hybridoma with oligopeptide supplements (Example 2); type: cell-based; settings: for growth stimulating effect on the hybridoma cell line (in words): Tables 3 to 7
From the text: Cells: Mouse hybridoma CAU 96 producing monoclonal lgG2a
Starting viable cell density is 310000 (3.1*10^5) cells per ml.

Mouse hybridoma CAU 96 [2] = system: Mouse hybridoma CAU 96
Procedure: Medium: DMEM/F-12/RPMI 1640 (2:1:1) supplemented with BME amino acids, MEM non essential amino acids, 2.0 mM glutamine, 15 mM HEPES, 2.0 g/L sodium bicarbonate and 0.4 mM ferric citrate.
Culture mode: 25 cm^2 T-flasks (Supplier: Nunc), culture volume 6.0 ml, placed at 37° C. in an incubator with 5% CO2; starting viable cell density is 3.1×10^5 cells per ml.

Mouse hybridoma CAU 96 [3] = system: Mouse hybridoma CAU 96; remark: listed apart in the source
Procedure: (§1) Cells: Mouse hybridoma CAU 96 producing monoclonal lgG2a antibody.
(§2) Medium: DMEM/F-12/RPMI 1640 (2:1:1) supplemented with Basal Medium Eagle (BME) amino acids, 2.0 mM glutamine, 15 mM HEPES (N-2-Hydroxyethylpiperazine-N′-2-ethanesulfonic acid), 2.0 g/l sodium bicarbonate and 0.4 mM ferric citrate.
(§3) Culture mode: 25 cm^3 T-flasks (Nunc) culture volume 6.0 ml, placed at 37° C. in an incubator with 5% CO^2; starting viable cell density is 3.1×10^5 cells per ml.
(§4) Preparation of samples of amino acid analysis: Cells are removed by low-speed centrifugation and macromolecular components are removed by ultrafiltration.

Mouse hybridoma CAU 96 [4] = assay: Amino acid analysis of the culture medium during cultivation of hybridoma cells with tetrapeptide
Procedure: as §1, §2, §3, §4

[5] = Table 4, Day 6, supplement 0.2% w/v
[6] = Table 6, Day 6, supplement 0.1% w/v
[7] = Table 6, Day 6, supplement 0.2% w/v
[8] = Table 5, Day 6, supplement 0.2% w/v
[9] = Table 4, Day 6, supplement 0.1% w/v
[10] = Table 3, Day 7, supplement 0.2% w/v
[11] = Table 5, Day 6, supplement 0.05% w/v
[12] = Table 5, Day 6, supplement 0.1% w/v
[13] = Table 5, Day 6, supplement 0.3% w/v
[14] = Table 7, Day 6, supplement 0.05% w/v
[15] = Table 7, Day 6, supplement 0.1% w/v
[16] = Table 7, Day 6, supplement 0.2% w/v

C[C@H](N)C(=O)O [Alanine, reference compound]
Viable cell number % of control (Mouse hybridoma CAU 96 [1]): 94 % of control | Monoclonal antibody (Mouse hybridoma CAU 96 [1]; [5]): 110 mg/L | Viability (Mouse hybridoma CAU 96 [1]; [5]): 60% | Viable cell number (Mouse hybridoma CAU 96 [1]; [5]): 1030 cells/μL | growth stimulating effect on the hybridoma cell line (in words) (Mouse hybridoma CAU 96 [1]): insignificant

Gly-His-Gly
Monoclonal antibody (Mouse hybridoma CAU 96 [1]; [6]): 121 mg/L | Viability (Mouse hybridoma CAU 96 [1]; [6]): 65% | Viable cell number (Mouse hybridoma CAU 96 [1]; [6]): 1180 cells/μL | Monoclonal antibody (Mouse hybridoma CAU 96 [1]; [7]): 144 mg/L | Viability (Mouse hybridoma CAU 96 [1]; [7]): 66% | Viable cell number (Mouse hybridoma CAU 96 [1]; [7]): 900 cells/μL

N[C@@H](CO)C(=O)O [Serine, reference compound]
Viable cell number % of control (Mouse hybridoma CAU 96 [1]): 104 % of control | Monoclonal antibody (Mouse hybridoma CAU 96 [1]; [8]): 111 mg/L | Viability (Mouse hybridoma CAU 96 [1]; [8]): 63% | Viable cell number (Mouse hybridoma CAU 96 [1]; [8]): 1190 cells/μL | growth stimulating effect on the hybridoma cell line (in words) (Mouse hybridoma CAU 96 [1]): insignificant

Ala-Ala-Ala [Trialanine]
Monoclonal antibody (Mouse hybridoma CAU 96 [1]; [9]): 130 mg/L | Viability (Mouse hybridoma CAU 96 [1]; [9]): 69% | Viable cell number (Mouse hybridoma CAU 96 [1]; [9]): 1390 cells/μL | Monoclonal antibody (Mouse hybridoma CAU 96 [1]; [5]): 132 mg/L | Viability (Mouse hybridoma CAU 96 [1]; [5]): 70% | Viable cell number (Mouse hybridoma CAU 96 [1]; [5]): 1420 cells/μL

NCCC(=O)O [β-alanine, reference compound]
Viable cell number % of control (Mouse hybridoma CAU 96 [1]): 106 % of control | Monoclonal antibody (Mouse hybridoma CAU 96 [1]; [8]): 105 mg/L | Viability (Mouse hybridoma CAU 96 [1]; [8]): 60% | Viable cell number (Mouse hybridoma CAU 96 [1]; [8]): 1210 cells/μL | growth stimulating effect on the hybridoma cell line (in words) (Mouse hybridoma CAU 96 [1]): insignificant

NCC(=O)O [Glycine, reference compound]
Viable cell number % of control (Mouse hybridoma CAU 96 [1]): 102 % of control | Monoclonal antibody (Mouse hybridoma CAU 96 [1]; [10]): 160 mg/L | Viability (Mouse hybridoma CAU 96 [1]; [10]): 60% | Viable cell number (Mouse hybridoma CAU 96 [1]; [10]): 1080 cells/μL | growth stimulating effect on the hybridoma cell line (in words) (Mouse hybridoma CAU 96 [1]): does not significantly stimulate cell growth

NCC(=O)NCC(=O)NCC(=O)O [Triglycine, Gly-Gly-Gly] (H-Gly-Gly-Gly-OH)
Viability (Mouse hybridoma CAU 96 [1]; 0.1 % w/v): 78% | Monoclonal antibody (Mouse hybridoma CAU 96 [1]; [10]): 160 mg/L | Viable cell number (Mouse hybridoma CAU 96 [1]; [10]): 1660 cells/μL | Monoclonal antibody (Mouse hybridoma CAU 96 [1]; [6]): 98 mg/L | Viable cell number (Mouse hybridoma CAU 96 [1]; [6]): 1350 cells/μL | Monoclonal antibody (Mouse hybridoma CAU 96 [1]; [7]): 89 mg/L | Viable cell number (Mouse hybridoma CAU 96 [1]; [7]): 1300 cells/μL

Gly-Arg-Gly
Monoclonal antibody (Mouse hybridoma CAU 96 [1]; [6]): 106 mg/L | Viability (Mouse hybridoma CAU 96 [1]; [6]): 65% | Viable cell number (Mouse hybridoma CAU 96 [1]; [6]): 1360 cells/μL | Monoclonal antibody (Mouse hybridoma CAU 96 [1]; [7]): 121 mg/L | Viability (Mouse hybridoma CAU 96 [1]; [7]): 66% | Viable cell number (Mouse hybridoma CAU 96 [1]; [7]): 1270 cells/μL

Ser-Ser-Ser [Triserine]
Monoclonal antibody (Mouse hybridoma CAU 96 [1]; [11]): 109 mg/L | Viability (Mouse hybridoma CAU 96 [1]; [11]): 61% | Viable cell number (Mouse hybridoma CAU 96 [1]; [11]): 1200 cells/μL | Monoclonal antibody (Mouse hybridoma CAU 96 [1]; [12]): 112 mg/L | Viability (Mouse hybridoma CAU 96 [1]; [12]): 65% | Viable cell number (Mouse hybridoma CAU 96 [1]; [12]): 1340 cells/μL | Monoclonal antibody (Mouse hybridoma CAU 96 [1]; [8]): 126 mg/L | Viability (Mouse hybridoma CAU 96 [1]; [8]): 70% | Viable cell number (Mouse hybridoma CAU 96 [1]; [8]): 1550 cells/μL | Monoclonal antibody (Mouse hybridoma CAU 96 [1]; [13]): 142 mg/L | Viability (Mouse hybridoma CAU 96 [1]; [13]): 78% | Viable cell number (Mouse hybridoma CAU 96 [1]; [13]): 1610 cells/μL

Thr-Thr-Thr [Trithreonine]
Monoclonal antibody (Mouse hybridoma CAU 96 [1]; [11]): 122 mg/L | Viability (Mouse hybridoma CAU 96 [1]; [11]): 67% | Viable cell number (Mouse hybridoma CAU 96 [1]; [11]): 1310 cells/μL | Monoclonal antibody (Mouse hybridoma CAU 96 [1]; [12]): 130 mg/L | Viability (Mouse hybridoma CAU 96 [1]; [12]): 70% | Viable cell number (Mouse hybridoma CAU 96 [1]; [12]): 1370 cells/μL | Monoclonal antibody (Mouse hybridoma CAU 96 [1]; [8]): 152 mg/L | Viability (Mouse hybridoma CAU 96 [1]; [8]): 73% | Viable cell number (Mouse hybridoma CAU 96 [1]; [8]): 1450 cells/μL

Gly-βAla-Gly-Gly (G[βAla]GG)
Monoclonal antibody (Mouse hybridoma CAU 96 [1]; [14]): 121 mg/L | Viability (Mouse hybridoma CAU 96 [1]; [14]): 68% | Viable cell number (Mouse hybridoma CAU 96 [1]; [14]): 1100 cells/μL | Monoclonal antibody (Mouse hybridoma CAU 96 [1]; [15]): 129 mg/L | Viability (Mouse hybridoma CAU 96 [1]; [15]): 65% | Viable cell number (Mouse hybridoma CAU 96 [1]; [15]): 1150 cells/μL | Monoclonal antibody (Mouse hybridoma CAU 96 [1]; [16]): 150 mg/L | Viability (Mouse hybridoma CAU 96 [1]; [16]): 72% | Viable cell number (Mouse hybridoma CAU 96 [1]; [16]): 1270 cells/μL

Gly-Gly-Gly-Gly-Gly-Gly [Hexaglycine]
Viable cell number % of control (Mouse hybridoma CAU 96 [1]): 183 % of control | Monoclonal antibody (Mouse hybridoma CAU 96 [1]; [10]): 160 mg/L | Viability (Mouse hybridoma CAU 96 [1]; [10]): 79% | Viable cell number (Mouse hybridoma CAU 96 [1]; [10]): 1940 cells/μL

Gly-Gly-Lys-Ala (GGKA)
Monoclonal antibody (Mouse hybridoma CAU 96 [1]; [15]): 118 mg/L | Viability (Mouse hybridoma CAU 96 [1]; [15]): 79% | Viable cell number (Mouse hybridoma CAU 96 [1]; [15]): 1310 cells/μL | Monoclonal antibody (Mouse hybridoma CAU 96 [1]; [16]): 134 mg/L | Viability (Mouse hybridoma CAU 96 [1]; [16]): 78% | Viable cell number (Mouse hybridoma CAU 96 [1]; [16]): 1290 cells/μL

Gly-Gly-Glu-Ala (GGEA)
Monoclonal antibody (Mouse hybridoma CAU 96 [1]; [15]): 100 mg/L | Viability (Mouse hybridoma CAU 96 [1]; [15]): 82% | Viable cell number (Mouse hybridoma CAU 96 [1]; [15]): 1350 cells/μL | Monoclonal antibody (Mouse hybridoma CAU 96 [1]; [16]): 113 mg/L | Viability (Mouse hybridoma CAU 96 [1]; [16]): 77% | Viable cell number (Mouse hybridoma CAU 96 [1]; [16]): 1280 cells/μL

Gly-Asp-Gly
Monoclonal antibody (Mouse hybridoma CAU 96 [1]; [6]): 98 mg/L | Viability (Mouse hybridoma CAU 96 [1]; [6]): 64% | Viable cell number (Mouse hybridoma CAU 96 [1]; [6]): 1340 cells/μL | Monoclonal antibody (Mouse hybridoma CAU 96 [1]; [7]): 92 mg/L | Viability (Mouse hybridoma CAU 96 [1]; [7]): 70% | Viable cell number (Mouse hybridoma CAU 96 [1]; [7]): 1420 cells/μL

C[C@@H](O)[C@H](N)C(=O)O [Threonine, reference compound]
Viable cell number % of control (Mouse hybridoma CAU 96 [1]): 97 % of control | Monoclonal antibody (Mouse hybridoma CAU 96 [1]; [8]): 114 mg/L | Viability (Mouse hybridoma CAU 96 [1]; [8]): 59% | Viable cell number (Mouse hybridoma CAU 96 [1]; [8]): 1100 cells/μL

Gly-Lys-Gly
Monoclonal antibody (Mouse hybridoma CAU 96 [1]; [6]): 128 mg/L | Viability (Mouse hybridoma CAU 96 [1]; [6]): 67% | Viable cell number (Mouse hybridoma CAU 96 [1]; [6]): 1250 cells/μL | Monoclonal antibody (Mouse hybridoma CAU 96 [1]; [7]): 154 mg/L | Viability (Mouse hybridoma CAU 96 [1]; [7]): 62% | Viable cell number (Mouse hybridoma CAU 96 [1]; [7]): 1100 cells/μL

Gly-Gly-Gly-Gly-Gly [Pentaglycine]
Viable cell number % of control (Mouse hybridoma CAU 96 [1]): 190 % of control | Monoclonal antibody (Mouse hybridoma CAU 96 [1]; [10]): 165 mg/L | Viability (Mouse hybridoma CAU 96 [1]; [10]): 82% | Viable cell number (Mouse hybridoma CAU 96 [1]; [10]): 2020 cells/μL

Gly-Gly-His-Gly (GGHG)
Monoclonal antibody (Mouse hybridoma CAU 96 [1]; [15]): 93 mg/L | Viability (Mouse hybridoma CAU 96 [1]; [15]): 77% | Viable cell number (Mouse hybridoma CAU 96 [1]; [15]): 1360 cells/μL | Monoclonal antibody (Mouse hybridoma CAU 96 [1]; [16]): 84 mg/L | Viability (Mouse hybridoma CAU 96 [1]; [16]): 71% | Viable cell number (Mouse hybridoma CAU 96 [1]; [16]): 1180 cells/μL

NCC(=O)NCC(=O)NCC(=O)NCC(=O)O [Tetraglycine, Gly-Gly-Gly-Gly] (H-GGGG-OH; N-terminus and C-terminus assumed)
Viable cell number % of control (Mouse hybridoma CAU 96 [1]): 176 % of control | Viability (Mouse hybridoma CAU 96 [1]; 0.2 % w/v): 80% | Viability (Mouse hybridoma CAU 96 [2]; 0.1 % w/v): 78% | Viability (Mouse hybridoma CAU 96 [2]; 0.2 % w/v): 77% | Viability (Mouse hybridoma CAU 96 [2]; 0.3 % (w/v)): 80% | Amino acid concentration, Day 0 (Mouse hybridoma CAU 96 [3]): 7.14 mM | Amino acid concentration, Day 4 (Mouse hybridoma CAU 96 [3]): 6.55 mM

C[C@H](N)C(=O)N[C@@H](C)C(=O)N[C@@H](C)C(=O)N[C@@H](C)C(=O)O [Tetraalanine, Ala-Ala-Ala-Ala] (H-AAAA-OH; N-terminus and C-terminus assumed)
Viability (Mouse hybridoma CAU 96 [1]; 0.1 % w/v): 66% | Viability (Mouse hybridoma CAU 96 [1]; 0.2 % w/v): 72% | Amino acid concentration, Day 0 (Mouse hybridoma CAU 96 [4]; Table 2, culture medium with tetraalanine, day 0): 1.84 | Amino acid concentration, Day 4 (Mouse hybridoma CAU 96 [4]; Table 2, culture medium with tetraalanine, day 4): 1.28 | Amino acid concentration, Difference (Mouse hybridoma CAU 96 [4]; Table 2, day 4 minus day 0): −0.56

Diglycine
Viable cell number % of control (Mouse hybridoma CAU 96 [1]): 114 % of control | Monoclonal antibody (Mouse hybridoma CAU 96 [1]; [10]): 165 mg/L | Viability (Mouse hybridoma CAU 96 [1]; [10]): 70% | Viable cell number (Mouse hybridoma CAU 96 [1]; [10]): 1210 cells/μL
